Reference: ChEMBL document CHEMBL1158772, “Benzophenones from Hypericum carinatum” (J Nat Prod, 2005)
Active and inactive are the calls of the source. The calls are words filed in the database; no cut-off is given here.

Assays:
Format in all cases: functional
[1] = Antioxidant activity assessed as ABAP free radical scavenging measured by TRAP assay
[2] = Antioxidant activity assessed as ABAP free radical scavenging measured at 1.6 mM by TRAP assay
[3] = Antioxidant activity assessed as ABAP free radical scavenging measured at 3.2 mM by TRAP assay

In the case of `Cc1c(O)c2c(c(C(=O)c3ccccc3)c1O)OC(C)(C)C=C2`, the Activity [1] is reported as “inactive”.

In the case of `Cc1c(O)c(C(=O)c2ccccc2)c(O)c2c1OC(C)(C)C=C2`, the Activity [2] is reported as “Active” and the Activity [3] is reported as “Active”.

In the case of `O=c1c(O)c(-c2ccc(O)c(O)c2)oc2cc(O)cc(O)c12`, the Activity [3] is reported as “Active”.

With `CC(C)C(=O)C1=C(O)C(Cc2c(O)c3c(c(C(=O)C(C)C)c2O)OC(C)(C)C=C3)=C(O)C(C)(C)C1=O` the Activity [1] was “inactive”.
